{"source": "patent US7329657B2", "about": "“Indazolyl-substituted pyrroline compounds as kinase inhibitors” (Ortho-McNeil Pharmaceutical, Inc., priority 2000, dated 2008)", "type_in_all_cases": "biochemical", "key": {"PKC β-II": {"biological_target": "PKC β-II (Homo sapiens, UniProt P05771)", "sequence (P05771 1-673 isoform P05771-2)": "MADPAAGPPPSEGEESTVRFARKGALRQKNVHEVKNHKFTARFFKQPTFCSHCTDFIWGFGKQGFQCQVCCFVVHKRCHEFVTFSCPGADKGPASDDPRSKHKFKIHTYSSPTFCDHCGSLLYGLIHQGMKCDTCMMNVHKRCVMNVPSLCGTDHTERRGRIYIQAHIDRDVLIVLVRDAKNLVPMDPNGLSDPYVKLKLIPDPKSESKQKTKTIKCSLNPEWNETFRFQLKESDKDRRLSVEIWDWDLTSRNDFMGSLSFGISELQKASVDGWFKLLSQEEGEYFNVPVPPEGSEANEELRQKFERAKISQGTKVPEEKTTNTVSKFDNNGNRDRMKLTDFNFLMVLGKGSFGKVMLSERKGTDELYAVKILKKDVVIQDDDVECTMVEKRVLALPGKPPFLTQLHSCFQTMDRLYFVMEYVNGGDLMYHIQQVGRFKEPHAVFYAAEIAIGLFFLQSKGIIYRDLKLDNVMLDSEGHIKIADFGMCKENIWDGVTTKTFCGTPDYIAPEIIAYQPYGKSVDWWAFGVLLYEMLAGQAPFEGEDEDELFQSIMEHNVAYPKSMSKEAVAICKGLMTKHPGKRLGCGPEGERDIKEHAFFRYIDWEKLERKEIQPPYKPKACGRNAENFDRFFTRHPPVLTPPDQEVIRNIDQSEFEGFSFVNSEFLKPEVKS", "test": "Protein Kinase C Histone-Based Assay, β-II isoform", "details": "histone III substrate, 30 μM ATP, 10 min at 30° C.; read-out: PKC Activity (IC50 μM, Histone Based Assay) Beta II", "protocol": "(§1) Compounds were evaluated for PKC selectivity using histone III as the substrate. […] The reaction was incubated for 10 min at 30° C. Reactions were terminated by TCA precipitation and spotting on Whatman P81 filters. Filters were washed in 75 mM phosphoric acid and the radioactivity quantified by liquid scintillation counting."}, "PKC α": {"biological_target": "PKC α (Homo sapiens, UniProt P17252)", "test": "Protein Kinase C Histone-Based Assay, α isoform", "details": "histone III substrate, 30 μM ATP, 10 min at 30° C.; read-out: PKC Activity (IC50 μM, Histone Based Assay) Alpha", "protocol": "as §1"}, "PKC γ": {"biological_target": "PKC γ (Homo sapiens, UniProt P05129)", "test": "Protein Kinase C Histone-Based Assay, γ isoform", "details": "histone III substrate, 30 μM ATP, 10 min at 30° C.; read-out: PKC Activity (IC50 μM, Histone Based Assay) Gamma", "protocol": "as §1"}, "[1]": {"biological_target": "T1, recombinant rabbit GSK-3β protein (Oryctolagus cuniculus, UniProt G1T8E2)", "T1 construct": "purchased New England Biolabs", "T1 sequence (G1T8E2 1-432)": "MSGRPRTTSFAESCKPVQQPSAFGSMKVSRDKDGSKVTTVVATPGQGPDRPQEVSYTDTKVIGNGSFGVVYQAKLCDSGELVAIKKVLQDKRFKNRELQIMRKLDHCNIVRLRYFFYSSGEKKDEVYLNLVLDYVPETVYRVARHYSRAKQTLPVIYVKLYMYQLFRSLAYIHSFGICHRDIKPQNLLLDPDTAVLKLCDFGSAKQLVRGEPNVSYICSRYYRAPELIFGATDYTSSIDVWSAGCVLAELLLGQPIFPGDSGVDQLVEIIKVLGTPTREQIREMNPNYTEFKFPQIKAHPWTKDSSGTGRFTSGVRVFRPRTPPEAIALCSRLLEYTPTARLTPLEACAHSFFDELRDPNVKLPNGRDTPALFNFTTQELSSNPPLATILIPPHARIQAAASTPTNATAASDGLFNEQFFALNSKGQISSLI", "test": "Glycogen Synthase Kinase-3 Assay", "details": "PPI-2 substrate, 33P-ATP, 90 minutes at 30° C.", "protocol": "Compounds were tested for the ability to inhibit recombinant rabbit GSK-3β protein using the following protocol. The test compound was added to a reaction mixture containing Protein phosphatase inhibitor-2 (PPI-2) (Calbiochem) (45 ng), rabbit GSK-3β protein (New England Biolabs) (0.75 units) and ^33P-ATP (1 μCi) in 50 mM Tris-HCl (pH 8.0), 10 mM MgCl2, 0.1% BSA, 1 mM DTT and 100 μM Sodium Vanadate. The mixture was reacted for 90 minutes at 30° C. to allow phosphorylation of the PPI-2 protein and then the protein in the reaction was precipitated using 10% TCA. The precipitated protein was collected on filter plates (MultiScreen-DV/Millipore), which were subsequently washed. Finally, the radioactivity was quantified using a TopCount Scintillation Counter (Packard)."}}}
{"smiles": "O=C1NC(=O)C(c2nn(CCCO)c3ccccc23)=C1c1cn(-c2cccnc2)c2ccccc12", "note": "[Compound 94, 3-[1-(3-hydroxypropyl)-1H-indazol-3-yl]-4-[1-(3-pyridinyl)-1H-indol-3-yl]-1H-pyrrole-2,5-dione]", "values": [{"measurement": "IC50", "setting": "PKC β-II", "result": 0.011, "unit": "µM"}, {"measurement": "IC50", "setting": "PKC α", "result": 0.306, "unit": "µM"}, {"measurement": "IC50", "setting": "PKC γ", "result": 0.411, "unit": "µM"}, {"measurement": "IC50", "setting": "[1]", "result": 0.058, "unit": "µM"}]}
{"smiles": "C=Cn1cc(C2=C(c3nn(CCCN(C)C)c4ccccc34)C(=O)NC2=O)c2ccccc21", "note": "[Compound 3, 3-[1-[3-(dimethylamino)propyl]-1H-indazol-3-yl]-4-(1-ethenyl-1H-indol-3-yl)-1H-pyrrole-2,5-dione]", "values": [{"measurement": "IC50", "setting": "PKC β-II", "result": 0.023, "unit": "µM"}, {"measurement": "IC50", "setting": "PKC α", "result": 0.248, "unit": "µM"}, {"measurement": "IC50", "setting": "PKC γ", "result": 0.323, "unit": "µM"}, {"measurement": "IC50", "setting": "[1]", "result": 0.049, "unit": "µM"}]}
{"smiles": "O=C1NC(=O)C(c2nn(CCCN3CCOCC3)c3ccccc23)=C1c1cn(-c2cccnc2)c2ccccc12", "note": "[Compound 68, 3-[1-[3-(4-morpholinyl)propyl]-1H-indazol-3-yl]-4-[1-(3-pyridinyl)-1H-indol-3-yl]-1H-pyrrole-2,5-dione]", "values": [{"measurement": "IC50", "setting": "PKC β-II", "result": 0.011, "unit": "µM"}, {"measurement": "IC50", "setting": "PKC α", "result": 0.217, "unit": "µM"}, {"measurement": "IC50", "setting": "PKC γ", "result": 0.426, "unit": "µM"}, {"measurement": "IC50", "setting": "[1]", "result": 0.096, "unit": "µM"}]}
{"smiles": "Cn1cc(C2=C(c3nn(CCCN4CCOCC4)c4ccccc34)C(=O)NC2=O)c2cc(Cl)ccc21", "note": "[Compound 78, 3-(5-chloro-1-methyl-1H-indol-3-yl)-4-[1-[3-(4-morpholinyl)propyl]-1H-indazol-3-yl]-1H-pyrrole-2,5-dione]", "values": [{"measurement": "IC50", "setting": "PKC β-II", "result": 0.016, "unit": "µM"}, {"measurement": "IC50", "setting": "PKC α", "result": 0.94, "unit": "µM"}, {"measurement": "IC50", "setting": "PKC γ", "result": 0.53, "unit": "µM"}, {"measurement": "IC50", "setting": "[1]", "result": 0.041, "unit": "µM"}]}
{"smiles": "CN(CCO)CCCn1nc(C2=C(c3cn(C)c4ccc(Cl)cc34)C(=O)NC2=O)c2ccccc21", "note": "[Compound 79, 3-(5-chloro-1-methyl-1H-indol-3-yl)-4-[1-[3-[(2-hydroxyethyl)methylamino]propyl]-1H-indazol-3-yl]-1H-pyrrole-2,5-dione]", "values": [{"measurement": "IC50", "setting": "PKC β-II", "result": 0.007, "unit": "µM"}, {"measurement": "IC50", "setting": "PKC α", "result": 0.065, "unit": "µM"}, {"measurement": "IC50", "setting": "PKC γ", "result": 0.074, "unit": "µM"}, {"measurement": "IC50", "setting": "[1]", "result": 0.014, "unit": "µM"}]}
{"smiles": "CN1CCN(CCCn2nc(C3=C(c4cn(C)c5ccc(Cl)cc45)C(=O)NC3=O)c3ccccc32)CC1", "note": "[Compound 77, 3-(5-chloro-1-methyl-1H-indol-3-yl)-4-[1-[3-(4-methyl-1-piperazinyl)propyl]-1H-indazol-3-yl]-1H-pyrrole-2,5-dione]", "values": [{"measurement": "IC50", "setting": "PKC β-II", "result": 0.046, "unit": "µM"}, {"measurement": "IC50", "setting": "PKC α", "result": 0.354, "unit": "µM"}, {"measurement": "IC50", "setting": "PKC γ", "result": 0.89, "unit": "µM"}, {"measurement": "IC50", "setting": "[1]", "result": 0.043, "unit": "µM"}]}
